What was measured:
SHP-1 = target: T1, SHP-1 (Mus musculus, UniProt P29351); test: In vitro PTPase assay, GST/SHP-1 fusion protein; format: biochemical
T1 construct: made in house
Description: In vitro PTPase activities were measured using the commercial protein tyrosine phosphatase assay kit (Upstate Biotechnology, Inc. (“UBI”)) following established procedure known to one of skill in the art. […] 100 μl of Malachite Green solution was added and incubated for 5 minutes, and the absorbance at 660 nm was measured after 5 minutes.
The beads were then either subjected to in vitro PTPase assays or washed 3 times in Tris buffer then subjected to in vitro PTPase assays.
Briefly, individual PTPases (0.1 μg/reaction) in 50 μL of PTPase buffer (50 mM Tris, pH 7.4) were incubated at 22° C. for 10 minutes or as indicated in the absence or presence of inhibitory compounds. […] […] […] Relative PTPase activities were calculated based on the formula: (PTPase activity in the presence of an inhibitory compound/PTPase activity in the absence of the compound)×100%. To assess the reversibility of PTPase inhibition, GST fusion proteins of the PTPases bound on glutathione beads (Pharmacia) were pre-incubated with cold Tris buffer (50 mM Tris, pH 7.0) or Tris buffer containing the inhibitor at 4° C. for 30 minutes. The beads were then washed three times in cold Tris buffer or not washed prior to subjecting to in vitro PTPase assays.

[1] = system: WM9 PRL-1R86 transfectant; test: Growth of WM9 PRL-1R86 transfectant (MTT); format: cell-based, human; conditions: 50 or 100 μg/ml, 6 days
Description: NIH3T3 (Yi, et al., Blood 85, 87 (1995)), WM9 (Forsberg, et al., Proc. Nat. Acad Sci. USA 90, 393 (1993)), DU145 (Mickey, et al., Cancer Res. 37, 4049 (1977)), LoVo (Drewinko, et al., Cancer Res. 36, 467 (1976)), HEY (Buick, et al., Cancer Res. 45, 3668 (1985)), U251 (Yoshida, et al., Cancer 50, 410 (1982)), A549 (Giard, et al., J. Natl. Cancer Inst. 51, 1417 (1973)) and SK-N-SH (Helson, et al., Cancer Res. 35, 2594 (1975)) cell lines have been described and were cultured in RPMI 1640 supplemented with 10% fetal calf serum (FCS). For measurement of sodium stibogluconate effects on cell growth in vitro, cells were cultured in the absence (−) or presence (+) of various amounts of sodium stibogluconate for 6 days with viable cells quantified by MTT assays (Mosmann, J. Imunol. Methods 65, 55 (1983)). Percentages of growth inhibition by sodium stibogluconate were calculated (+/−×%).
The effects of sodium stibogluconate on intracellular PTPases were assessed using NIH3T3 or WM9 transfectants. NIH3T3 or WM9 cells were transfected with the pBabepuro vector (V) or pBabepuro expression constructs of Flag-tagged PRLs using Lipofectamine (BRL) following the manufacturer's procedures. […]

C42 cells = test: Cell proliferation assay (MTT), C42 prostate cancer cells; format: cell-based, human
Description: For cell proliferation assays, cells were grown in 10% FCS culture medium containing various amounts of IFNs and/or sodium stibogluconate in 96 well plates and cultured at 37° C. for 3 or 6 days as indicated. The numbers of viable cells in proliferation assays were determined by MTT assays as described in Phatak et al., J. Immunol. 167, 3391 (2001).

Flag-PRL-2 = target: T2, Flag-PRL-2 (Homo sapiens, UniProt Q12974); test: Immunocomplex PTPase assay, Flag-PRL-2 NIH3T3 transfectants; format: cell-based
T2 construct: expressed in transfected cells
T2 sequence (Q12974 whole entry): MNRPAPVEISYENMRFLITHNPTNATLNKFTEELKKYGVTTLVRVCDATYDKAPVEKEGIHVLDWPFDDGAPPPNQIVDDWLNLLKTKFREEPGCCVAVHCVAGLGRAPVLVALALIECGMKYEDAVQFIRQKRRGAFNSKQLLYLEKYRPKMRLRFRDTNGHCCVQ
Description: Immunocomplex PTPase assays were performed to assess the effects of sodium stibogluconate on intracellular PTPases. Cells were untreated or treated with sodium stibogluconate for 5 minutes, washed with fresh medium and then lysed in cold lysis buffer (50 mM Tris, pH 7.4; 150 mM NaCl; 1% NP40; 2 mM PMSF; 20 ,g/ml of Aprotinin). The lysates were incubated with an anti-Flag antibody in immunoprecipitation assays. The immunocomplexes were collected with protein G sepharose beads (Pharmacia) and washed in cold lysis buffer for 4 times. […] 100 μL of malachite green solution (UBI) was added to each reaction prior to measurement of OD660 to quantify the amounts of free phosphate cleaved by the PTPases from the peptide substrate (Pathak et al., J. Imumol. 167, 3391 (2001)). The remaining 10% contents of individual samples were analyzed by SDS-PAGE/Western blotting to quantify the relative amounts of the phosphatase proteins. […]
The effects of sodium stibogluconate on intracellular PTPases were assessed using NIH3T3 or WM9 transfectants. […]

AML-3 cells = test: AML-3 cell differentiation; format: cell-based, human

T1 sequence (P29351 whole entry, the tested form may be a part): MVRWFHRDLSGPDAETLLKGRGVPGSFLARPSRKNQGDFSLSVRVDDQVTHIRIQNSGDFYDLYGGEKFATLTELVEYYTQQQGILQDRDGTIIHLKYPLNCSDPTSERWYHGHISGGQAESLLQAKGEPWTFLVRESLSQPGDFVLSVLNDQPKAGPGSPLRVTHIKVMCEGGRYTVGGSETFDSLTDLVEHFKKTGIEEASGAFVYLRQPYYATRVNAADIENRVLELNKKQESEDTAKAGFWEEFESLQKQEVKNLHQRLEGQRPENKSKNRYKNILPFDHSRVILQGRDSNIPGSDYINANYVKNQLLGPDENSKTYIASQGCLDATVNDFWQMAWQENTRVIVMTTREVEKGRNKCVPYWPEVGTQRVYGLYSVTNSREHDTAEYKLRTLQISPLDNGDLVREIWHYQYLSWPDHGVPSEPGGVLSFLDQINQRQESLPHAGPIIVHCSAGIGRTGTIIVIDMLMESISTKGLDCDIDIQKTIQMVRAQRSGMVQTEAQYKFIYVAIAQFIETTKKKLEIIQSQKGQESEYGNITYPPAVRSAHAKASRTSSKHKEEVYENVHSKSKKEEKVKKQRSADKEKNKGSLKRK

O.O.O.O.O.O.O.O.O.O=C([O-])[C@@H]1[O][Sb]2([O-])([O][Sb]34([OH])[O][C@H]([C@H](O)CO)[C@H]([O]3)[C@H](C(=O)[O-])[O]4)[O][C@H]([C@H](O)CO)[C@@H]1[O]2.[Na+].[Na+].[Na+] [sodium stibogluconate]
dephosphorylation of pNPP by SHP-1, SHP-2 and PTP1B (SHP-1; pNPP substrate): similarly inhibited
activity against recombinant SHP-1 of HPLC fractions and parental mixture (SHP-1; parental mixture at Sb concentration of 10 μg/ml): inactivated SHP-1
reversibility of SHP-1 inhibition by washing (SHP-1; pre-incubated at 4° C. 30 minutes, beads washed 3 times): not affected by washing
growth inhibition of R86 cells at higher doses [1]: only modest growth inhibition
sensitivity of C42 cells (C42 cells): highly resistant
time for full removal of effect on intracellular PRL-2 activity (Flag-PRL-2; brief treatment, NIH3T3 transfectants): at least 24 hours
PTPase activity of anti-Flag immunocomplexes, Flag-PRL-2 (Flag-PRL-2; cells treated 5 min): lack of PTPase activity
differentiation of AML-3 cells (AML-3 cells): inducing differentiation

From patent US20030161893A1, “PTPase inhibitors and methods of using the same” (priority 2001, published 2003)
